One data set has as its target SARS-CoV-2 RdRP (Severe acute respiratory syndrome coronavirus 2, UniProt P0DTD1). In words: SARS-CoV-2 RdRP RNA polymerization activity, in vitro fluorescent assay. The data set is classed as biochemical. The settings on record: for inhibition of RdRP polymerization activity (in words): dose-response, relative to DMSO.
For data set [1], the system named is SARS-CoV-2 (England 02/2020/407073 isolate). Briefly: SARS-CoV-2 replication in Vero E6 cells, plaque assay. Format: cell-based.
For data set [2], the system named is SARS-CoV-2. Briefly: Total and genomic viral RNA levels in cell lysates, RT-qPCR. Format: cell-based. The settings on record: Vero E6 and Caco-2 cells, 48 hours after infection.
Details of data set [3]: method as in PMID 25251156. The settings on record: halted progression from phase II clinical trials; cited from earlier work.
A further data set has as its system Vero E6 cells. In words: Cytotoxicity in uninfected Vero E6 cells, MTT assay. In general terms: Tetrazolium dyes change colour on reduction, which living cells bring about.
For data set [4], the system named is SARS-CoV-2. The settings on record: cited from earlier work.
[5] abbreviates: purified RdRP, 2 hours at 37°C, middle point between top and bottom plateaus, read-out: relative IC50 (RdRP polymerization activity).
The mark [6] stands for this setting: Severe acute respiratory syndrome coronavirus 2, Vero C1008, read-out: IC50 (50% decrease in the titre of supernatant virus), MOI 0.05, 48 h.

Like-named read-outs stand apart in the source and are kept apart here. Bounds are passed on as bounds.

The term IC50 denotes the concentration that inhibits the measured activity by half. Take `C/C1=C2/[N-][C@H]([C@H](CC(N)=O)[C@@]2(C)CCC(=O)NC[C@H](C)OP(=O)([O-])O[C@H]2[C@@H](O)[C@@H](n3cnc4cc(C)c(C)cc43)O[C@@H]2CO)[C@]2(C)N=C(/C(C)=C3N=C(/C=C4N=C1[C@@H](CCC(N)=O)C\4(C)C)[C@@H](CCC(N)=O)[C@]\3(C)CC(N)=O)[C@@H](CCC(N)=O)[C@]2(C)CC(N)=O.[CH3-].[Co+3]` [Mecobalamin, methylcobalamin]: the “inhibition of RdRP polymerization activity (in words)” value (shortened to “inhibition”) against SARS-CoV-2 RdRP is given as “inhibited RdRP polymerization activity in a dose-dependent manner”. For the same molecule, the half-maximal inhibitory concentration (IC50) on SARS-CoV-2 RdRP (setting [5]) was determined as 85.7 µM.

Take `COc1nc(N)nc2c1ncn2[C@@H]1O[C@H](COP(=O)(N[C@@H](C)C(=O)OCC(C)(C)C)Oc2cccc3ccccc23)[C@@H](O)[C@@]1(C)O` (some centres unmarked) [BMS-986094]: the 50% inhibitory concentration (IC50) in data set [1] (setting [6]) turned out to be 26.6 µM. Moreover, at SARS-CoV-2 RdRP, the 50% inhibitory concentration (IC50) came to 18.4 µM and the “inhibition” value is “inhibited RdRP polymerization activity in a dose-dependent manner”. For the same molecule, the “total and genomic viral RNA levels in cell lysates (in words)” value in the data set with SARS-CoV-2 [2] is “consistently decreasing”. The “cardiac effects (in words)” value in data set [3] is listed as “harmful cardiac effects”. The “concentration at which toxic to cells” value in the data set with Vero E6 cells (48 h) is more than 100 µM.

As for `CCC(CC)COC(=O)[C@H](C)N[P@](=O)(OC[C@H]1O[C@@](C#N)(c2ccc3c(N)ncnn23)[C@H](O)[C@@H]1O)Oc1ccccc1` [Remdesivir], the IC50 in data set [1] (setting [6]) is 1 µM. Also, the “cytotoxic effects (in words)” value in the data set with Vero E6 cells is on record as “did not exert observable cytotoxic effects”.

On to `C/C1=C2/[N-]C([C@H](CC(N)=O)[C@@]2(C)CCC(=O)NC[C@@H](C)OP(=O)([O-])O[C@H]2[C@@H](O)[C@@H](n3cnc4cc(C)c(C)cc43)O[C@@H]2CO)[C@]2(C)N=C(/C(C)=C3N=C(/C=C4N=C1[C@@H](CCC(N)=O)C\4(C)C)[C@@H](CCC(N)=O)[C@]\3(C)CC(N)=O)[C@@H](CCC(N)=O)[C@]2(C)CC(N)=O.[CH2-][C@H]1O[C@@H](n2cnc3c(N)ncnc32)[C@@H](O)[C@@H]1O.[Co+3]` [Cobamamide, cobamamide], for which the IC50 in data set [1] (read-out: IC50 (50% decrease in the titre of supernatant virus), MOI 0.05, 48 h) turned out to be 403 µM; on SARS-CoV-2 RdRP (setting [5]), 54.4 µM. Moreover, the “inhibition” value on SARS-CoV-2 RdRP was “inhibited RdRP polymerization activity in a dose-dependent manner”. Besides, the cytotoxicity result in the data set on Vero E6 cells (highest dose of 1mM) is listed as “up to 20%”.

For the molecule `C/C1=C2/[N-][C@H]([C@H](CC(N)=O)[C@@]2(C)CCC(=O)NC[C@@H](C)OP(=O)([O-])O[C@H]2[C@@H](O)[C@@H](n3cnc4cc(C)c(C)cc43)O[C@@H]2CO)[C@]2(C)N=C(/C(C)=C3N=C(/C=C4N=C1[C@@H](CCC(N)=O)C\4(C)C)[C@@H](CCC(N)=O)[C@]\3(C)CC(N)=O)[C@@H](CCC(N)=O)[C@]2(C)CC(N)=O.[Co+3].[OH-]` [Hydroxocobalamin, hydroxocobalamin], at SARS-CoV-2 RdRP, the “inhibition” value is reported as “inhibited RdRP polymerization activity in a dose-dependent manner”. Further, the IC50 at SARS-CoV-2 RdRP (setting [5]) came to 90.4 µM.

Take `CC(C)OC(=O)[C@H](C)N[P@+]([O-])(OC[C@H]1O[C@@](C#N)(c2ccc3c(N)ncnn23)[C@](C)(O)[C@@H]1OC(=O)C(C)C)Oc1ccccc1` [GS-6620]: the “efficacy against SARS-CoV-2 (in words)” value in the data set with SARS-CoV-2 [4] is given as “lack of efficacy against SARS-CoV-2”.

The record behind these values is paper PMC9333455, “Drug repurposing based on a quantum-inspired method versus classical fingerprinting uncovers potential antivirals against SARS-CoV-2” (PLoS Computational Biology, 2022).
